Data on one compound can be found in patent US4204069A, “Reductive alkylation” (Merck & Co., Inc., priority 1978, dated 1980).

Assay [1] has as its target T1, β-1 adrenergic receptors (Cavia porcellus, UniProt H0W3H1).
T1 construct: conventionally isolated tissue preparations (guinea pig atrial and tracheal strips); from tissue; host or cells: guinea pig atrial strips
As to the kind of experiment: Guinea pig atrial strips, atrial rate (chronotropic response), β-1 agonist activity. Format: cell-based. Here is the method:
(§1) The pharmaceutical activity of the present compounds was determined in vitro using conventionally isolated tissue preparations (guinea pig atrial and tracheal strips). […] Both chronotropic (rate) and inotropic (force) responses were thereby assessed. […] The observed effect on tracheal muscle relaxation is equated with and considered to be an indication of bronchodilator activity. The β-1 and β-2 adrenergic receptor designations are those of Lands et al., Nature, 214, page 597 (1967).

The target of assay [2] is T1, β-1 adrenergic receptors. As to the kind of experiment: Guinea pig atrial strips, atrial force (inotropic response), β-1 agonist activity. In kind it is cell-based. Conditions: Atrial force (β-1). Here is the method:
as §1

Assay [3] is described as follows: Blood pressure of a rat after intravenous injection. Format: in vivo. Conditions: injected intravenously.
The target in a further assay is T2, β-2 adrenergic receptors (Cavia porcellus, UniProt Q8K4Z4).
T2 construct: conventionally isolated tissue preparations (guinea pig atrial and tracheal strips); from tissue; host or cells: guinea pig tracheal strips
T2 sequence (Q8K4Z4 whole entry): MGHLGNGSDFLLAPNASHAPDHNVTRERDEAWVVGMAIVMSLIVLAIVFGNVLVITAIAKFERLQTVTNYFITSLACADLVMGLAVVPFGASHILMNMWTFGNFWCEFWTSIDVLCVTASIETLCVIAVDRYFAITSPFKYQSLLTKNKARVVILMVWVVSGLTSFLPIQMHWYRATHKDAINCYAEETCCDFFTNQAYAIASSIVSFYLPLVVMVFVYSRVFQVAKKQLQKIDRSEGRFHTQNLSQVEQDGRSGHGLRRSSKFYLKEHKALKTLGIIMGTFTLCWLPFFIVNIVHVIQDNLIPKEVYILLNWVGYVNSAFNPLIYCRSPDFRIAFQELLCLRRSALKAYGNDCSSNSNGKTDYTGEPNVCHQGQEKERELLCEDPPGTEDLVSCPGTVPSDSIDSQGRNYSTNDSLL
The assay is described as follows: Guinea pig tracheal strips, tracheal muscle relaxation, β-2 agonist activity (bronchodilator activity). In kind it is cell-based. The procedure: as §1

Each structure is given as a SMILES string.

T1 sequence (H0W3H1 1-470): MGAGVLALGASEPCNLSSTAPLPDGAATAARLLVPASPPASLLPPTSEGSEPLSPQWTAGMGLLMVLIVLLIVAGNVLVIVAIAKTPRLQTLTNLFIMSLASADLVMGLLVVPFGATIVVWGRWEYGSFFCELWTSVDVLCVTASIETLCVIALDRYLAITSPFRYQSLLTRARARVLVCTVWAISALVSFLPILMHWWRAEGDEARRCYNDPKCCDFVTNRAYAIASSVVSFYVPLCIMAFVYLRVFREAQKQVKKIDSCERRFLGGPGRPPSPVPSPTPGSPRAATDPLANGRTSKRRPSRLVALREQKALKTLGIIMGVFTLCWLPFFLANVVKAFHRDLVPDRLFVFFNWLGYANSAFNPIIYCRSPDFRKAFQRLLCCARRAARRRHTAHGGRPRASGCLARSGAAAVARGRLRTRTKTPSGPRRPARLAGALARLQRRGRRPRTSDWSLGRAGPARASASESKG

As a reminder, the Emax is the greatest response seen or fitted, relative to the assay's reference. In the case of `CC(C)NCC(O)c1ccc2nc[nH]c2c1` (racemic) [R, S-BENZISO, R,S-1-(5-benzimidazolyl)-2-isopropylaminoethanol], the relative activity at β-1 adrenergic receptors [1] (Atrial rate (β-1), [ED50 (R,S-ISO)/ED50 (R,S-BENZISO)] × 100) worked out at 0.355; on β-1 adrenergic receptors [2] ([ED50 (R,S-ISO)/ED50 (R,S-BENZISO)] × 100), 0.355; on β-2 adrenergic receptors (Tracheal relaxation (β-2), [ED50 (R,S-ISO)/ED50 (R,S-BENZISO)] × 100), 4.79. For the same compound, the Emax is 50 ± 9% on β-1 adrenergic receptors [1] (Atrial rate (β-1), maximum response relative to R,S-ISO × 100, mean ± S.E.M.); 33 ± 12% at β-1 adrenergic receptors [2] (maximum response relative to R,S-ISO × 100, mean ± S.E.M.); 58 ± 7% on β-2 adrenergic receptors (Tracheal relaxation (β-2), maximum response relative to R,S-ISO × 100, mean ± S.E.M.). Moreover, the EC50 was 6.17 µM on β-1 adrenergic receptors [1] (Atrial rate (β-1), mean ± S.E.M., n=5, administered as the dihydrochloride, read-out: pD2 (negative logarithm of ED50) (converted)); 3.8 µM at β-1 adrenergic receptors [2] (mean ± S.E.M., n=3, administered as the dihydrochloride, read-out: pD2 (negative logarithm of ED50) (converted)); 1.66 µM on β-2 adrenergic receptors (Tracheal relaxation (β-2), mean ± S.E.M., n=4, administered as the dihydrochloride, read-out: pD2 (negative logarithm of ED50) (converted)). Further, the “cardiac stimulation (β-1 force and rate)” value on β-1 adrenergic receptors [1] (in words, from Table I) was “cardiac stimulant”. Besides, the “effect on blood pressure” value in assay [3] is listed as “decrease blood pressure”. Moreover, the “bronchodilator activity (β-2)” value on β-2 adrenergic receptors (in words, from Table I) is “good bronchodilator activity”. The “bronchodilator selectivity versus isoproterenol” value at β-2 adrenergic receptors (in words, from the β-2/β-1 ratio) was “more bronchodilator selective than is isoproterenol”. Besides, at β-2 adrenergic receptors (relative activity (tracheal relaxation)/relative activity (atrial rate)), the “Ratio, β-2/β-1” value came out at 13.5.
